Measurements published in PubChem BioAssay AID248 (DTP/NCI, 2004).
Values joined by “and” are separate entries in the source; they are usually repeats but may differ in a detail not shown here. Equal entries are not always repeated. Toxic doses and inconclusive results are not listed. No stated cut-off is given here; in the data, active means T/C of 150% or more; inactive means T/C below 125%.

Test system: L1210 leukemia ip in BDF1 mice, survival T/C
Assay: NCI In Vivo Anticancer Drug Screen. Data for tumor model L1210 Leukemia (intraperitoneal) in B6D2F1 (BDF1) mice
Settings: endpoint: mean survival time, higher = longer survival
Outline: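 Each compound was tested against a transplantable tumor grown in mice. The endpoint was survival, with treated animals benchmarked against vehicle controls as a simple ratio.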

[1] = dose: 150.0 mg/kg/injection, schedule: Q01DX001 (ip), vehicle: carboxymethylcellulose (CMC)
[2] = dose: 300.0 mg/kg/injection, schedule: Q01DX001 (ip), vehicle: carboxymethylcellulose (CMC)
[3] = dose: 50.0 mg/kg/injection, schedule: Q01DX009 (ip), vehicle: saline
[4] = dose: 100.0 mg/kg/injection, schedule: Q01DX009 (ip), vehicle: saline
[5] = dose: 100.0 mg/kg/injection, schedule: Q04DX003 (ip), vehicle: saline
[6] = dose: 200.0 mg/kg/injection, schedule: Q01DX009 (ip), vehicle: saline
[7] = dose: 100.0 mg/kg/injection, schedule: Q04DX003 (ip), vehicle: saline with Tween-80
[8] = dose: 400.0 mg/kg/injection, schedule: Q04DX003 (ip), vehicle: saline with Tween-80
[9] = dose: 100.0 mg/kg/injection, schedule: Q01DX001 (ip), vehicle: saline
[10] = dose: 200.0 mg/kg/injection, schedule: Q01DX001 (ip), vehicle: saline
[11] = dose: 400.0 mg/kg/injection, schedule: Q01DX001 (ip), vehicle: saline
[12] = dose: 100.0 mg/kg/injection, schedule: Q04DX002 (ip), vehicle: Klucel (hydroxypropylcellulose) (HPC)
[13] = dose: 200.0 mg/kg/injection, schedule: Q04DX002 (ip), vehicle: Klucel (hydroxypropylcellulose) (HPC)
[14] = dose: 400.0 mg/kg/injection, schedule: Q04DX002 (ip), vehicle: Klucel (hydroxypropylcellulose) (HPC)
[15] = dose: 25.0 mg/kg/injection, schedule: Q01DX009 (ip), vehicle: Klucel (hydroxypropylcellulose) (HPC)
[16] = dose: 50.0 mg/kg/injection, schedule: Q01DX009 (ip), vehicle: Klucel (hydroxypropylcellulose) (HPC)
[17] = dose: 100.0 mg/kg/injection, schedule: Q01DX009 (ip), vehicle: Klucel (hydroxypropylcellulose) (HPC)
[18] = dose: 100.0 mg/kg/injection, schedule: Q01DX009 (ip), vehicle: saline with Tween-80
[19] = dose: 200.0 mg/kg/injection, schedule: Q01DX009 (ip), vehicle: saline with Tween-80
[20] = dose: 400.0 mg/kg/injection, schedule: Q01DX009 (ip), vehicle: saline with Tween-80
[21] = dose: 50.0 mg/kg/injection, schedule: Q01DX001 (ip), vehicle: saline

Measured: T/C

CN1CCC=C(COC(=O)C(C)(C)C)C1
inactive: dose: 75.0 mg/kg/injection, schedule: Q01DX001 (ip), vehicle: carboxymethylcellulose (CMC) 92 % of control | [1] 87 % of control | [2] 95 % of control

NC(N)=N/N=C(/C=N/N=C(N)N)C(O)C(O)CO (centres undefined)
inactive: dose: 15.0 mg/kg/injection, schedule: Q01DX Z (ip), vehicle: carboxymethylcellulose (CMC) 101 % of control | dose: 30.0 mg/kg/injection, schedule: Q01DX Z (ip), vehicle: carboxymethylcellulose (CMC) 98 % of control | [3] 98 % of control | dose: 60.0 mg/kg/injection, schedule: Q01DX Z (ip), vehicle: carboxymethylcellulose (CMC) 104 % of control | [4] 98 % of control | [5] 102 % of control | dose: 120.0 mg/kg/injection, schedule: Q01DX Z (ip), vehicle: carboxymethylcellulose (CMC) 101 % of control | [6] 95 % of control | dose: 200.0 mg/kg/injection, schedule: Q04DX003 (ip), vehicle: saline 94 % of control | dose: 400.0 mg/kg/injection, schedule: Q04DX003 (ip), vehicle: saline 100 % of control

CCCCCCCCCCCCCCCCCCOC(=O)C(C(C)=O)C(c1cccc([N+](=O)[O-])c1)C(C(C)=O)C(=O)O (centres undefined)
inactive: dose: 25.6 mg/kg/injection, schedule: Q04DX002 (ip), vehicle: saline with Tween-80 87 % of control | dose: 64.0 mg/kg/injection, schedule: Q04DX002 (ip), vehicle: saline with Tween-80 95 % of control | [7] 90 % of control | dose: 160.0 mg/kg/injection, schedule: Q04DX002 (ip), vehicle: saline with Tween-80 95 % of control | dose: 400.0 mg/kg/injection, schedule: Q04DX002 (ip), vehicle: saline with Tween-80 91 % of control | [8] 92 % of control

Oc1ccccc1C1OCCO1
inactive: [9] 107 % of control | [10] 95 % of control | [11] 95 % of control

Cc1ccc(S(=O)(=O)OCC(F)(F)C(F)(F)C(F)(F)COS(=O)(=O)c2ccc(C)cc2)cc1
inactive: dose: 75.0 mg/kg/injection, schedule: Q04DX002 (ip), vehicle: saline with Tween-80 88 % of control | dose: 150.0 mg/kg/injection, schedule: Q04DX002 (ip), vehicle: saline with Tween-80 91 % of control | dose: 300.0 mg/kg/injection, schedule: Q04DX002 (ip), vehicle: saline with Tween-80 95 % of control

CC(=O)OC1C(CO)OC2C1OC1=NC(N)=NCN12 (centres undefined)
inactive: dose: 1.56 mg/kg/injection, schedule: Q01DX009 (ip), vehicle: saline 102 % of control and 119 % of control | dose: 3.12 mg/kg/injection, schedule: Q01DX009 (ip), vehicle: saline 102 % of control | dose: 6.25 mg/kg/injection, schedule: Q01DX009 (ip), vehicle: saline 95 % of control and 98 % of control | dose: 12.5 mg/kg/injection, schedule: Q01DX009 (ip), vehicle: saline 96 % of control and 98 % of control | dose: 25.0 mg/kg/injection, schedule: Q01DX009 (ip), vehicle: saline 96 % of control | [3] 100 % of control and 91 % of control | [4] 104 % of control and 91 % of control | [6] 107 % of control and 109 % of control

COC(=O)N1C(c2ccccc2)(c2ccccc2)CS1(=O)=O
inactive: [12] 112 % of control | [13] 104 % of control | [14] 93 % of control

C1CSC(SCCSC2=NCCS2)=N1
inactive: dose: 62.5 mg/kg/injection, schedule: Q01DX009 (ip), vehicle: carboxymethylcellulose (CMC) 89 % of control | dose: 125.0 mg/kg/injection, schedule: Q01DX009 (ip), vehicle: carboxymethylcellulose (CMC) 100 % of control | dose: 250.0 mg/kg/injection, schedule: Q01DX009 (ip), vehicle: carboxymethylcellulose (CMC) 96 % of control

CCN(C(=O)c1ccc2c3c(ccc(C(=O)N(CC)c4ccccc4)c13)CC2)c1ccccc1
inactive: [9] 104 % of control | [10] 104 % of control | [11] 95 % of control

O=C(SCC(NSc1ccccc1[N+](=O)[O-])C(=O)O)c1ccccc1 (centres undefined)
inactive: dose: 12.0 mg/kg/injection, schedule: Q04DX003 (ip), vehicle: Klucel (hydroxypropylcellulose) (HPC) 90 % of control | [15] 95 % of control | dose: 25.0 mg/kg/injection, schedule: Q04DX003 (ip), vehicle: Klucel (hydroxypropylcellulose) (HPC) 95 % of control | [16] 98 % of control | dose: 50.0 mg/kg/injection, schedule: Q04DX003 (ip), vehicle: Klucel (hydroxypropylcellulose) (HPC) 95 % of control | [17] 98 % of control

Cc1c(Cl)cccc1NC(=O)c1ccc([N+](=O)[O-])cc1
inactive: [18] 91 % of control | [19] 89 % of control | [20] 89 % of control

CCOc1ccccc1NC(=O)Nc1cccc(F)c1
inactive: [18] 104 % of control | [19] 96 % of control | [20] 93 % of control

O=C(C(=S)N1CCOCC1)c1ccccc1
inactive: dose: 100.0 mg/kg/injection, schedule: Q04DX003 (ip), vehicle: Klucel (hydroxypropylcellulose) (HPC) 101 % of control | dose: 200.0 mg/kg/injection, schedule: Q04DX003 (ip), vehicle: Klucel (hydroxypropylcellulose) (HPC) 104 % of control | dose: 400.0 mg/kg/injection, schedule: Q04DX003 (ip), vehicle: Klucel (hydroxypropylcellulose) (HPC) 101 % of control

Cc1ccc([N+](=O)[O-])cc1NC(=O)Cc1ccccc1
inactive: [12] 101 % of control | [13] 93 % of control | [14] 93 % of control

C(=C\c1nc2ccccc2[nH]1)/c1nc2ccccc2[nH]1
inactive: [21] 108 % of control | [9] 96 % of control | [10] 96 % of control | [11] 106 % of control

Cc1cc(C)c2c(=O)[nH]c(=S)[nH]c2n1
inactive: [21] 102 % of control | [9] 108 % of control | [17] 95 % of control | [10] 102 % of control | dose: 200.0 mg/kg/injection, schedule: Q01DX009 (ip), vehicle: Klucel (hydroxypropylcellulose) (HPC) 91 % of control | [11] 98 % of control | dose: 400.0 mg/kg/injection, schedule: Q01DX009 (ip), vehicle: Klucel (hydroxypropylcellulose) (HPC) 98 % of control

O=[N+]([O-])c1ccc(CS(=O)(=O)Cc2ccc([N+](=O)[O-])cc2)cc1
inactive: [1] 93 % of control | [2] 89 % of control

CCOC(=O)Nc1cc2n[nH]nc2c(NC(c2ccccc2)c2ccccc2)n1
inactive: [7] 94 % of control | dose: 200.0 mg/kg/injection, schedule: Q04DX003 (ip), vehicle: saline with Tween-80 87 % of control | [8] 92 % of control

CCCCN(CCCC)CCCOc1cc(C)ccc1C(C)C
inactive: dose: 3.0 mg/kg/injection, schedule: Q04DX003 (ip), vehicle: saline 97 % of control | dose: 6.0 mg/kg/injection, schedule: Q04DX003 (ip), vehicle: saline 105 % of control and 106 % of control | dose: 12.0 mg/kg/injection, schedule: Q01DX009 (ip), vehicle: Klucel (hydroxypropylcellulose) (HPC) 102 % of control | dose: 12.0 mg/kg/injection, schedule: Q04DX003 (ip), vehicle: saline 95 % of control and 107 % of control | [15] 93 % of control | dose: 25.0 mg/kg/injection, schedule: Q04DX003 (ip), vehicle: saline 97 % of control and 98 % of control and 105 % of control | [16] 109 % of control | [5] 109 % of control
